Values quoted from earlier work, collected in patent US20250262166A1, “NANOPARTICLES COMPRISING ENZALUTAMIDE” (priority 2019, published 2025).

CNC(=O)c1ccc(N2C(=S)N(c3ccc(C#N)c(C(F)(F)F)c3)C(=O)C2(C)C)cc1F [Enzalutamide]
solubility in water: insoluble in water
